Experimental findings from PMC3174134, “Lucanthone and Its Derivative Hycanthone Inhibit Apurinic Endonuclease-1 (APE1) by Direct Protein Binding” (PLoS ONE, 2011) are described below.

Experiment [1] concerns the target T1, APE1 (Homo sapiens, UniProt P27695). Put plainly: APE1 expression and cleavage in U251 1-5 overexpressor cells pretreated with cycloheximide, Western blot. The experiment is classed as cell-based. To be noted: for Cleavage of APE1 (25 kDa fragment): 10 µg/ml cycloheximide 4 h, then 25-100 µM drug 2 h. As for the experimental part:
Total purified protein concentration was determined by the ratio of A280/A260. 250 ng of APE1 treated with lucanthone or hycanthone (0.05–100 µM) for 2 h at 37°C in final volume of 30 µl were mixed with an equal volume of gel loading buffer (0.001% bromophenol blue, 4% SDS, 10% 2-ME, 20% glycerol, and 125 mM Tris pH 6.8) and denatured at 95°C for 5 min. Total protein concentration in cell extracts was determined using the Bradford assay (BioRad, Hercules, CA) and 25 µg of total protein from soluble or insoluble cell fractions were mixed with an equal volume of gel loading buffer (0.001% bromophenol blue, 4% SDS, 10% 2-ME, 20% glycerol, and 125 mM Tris pH 6.8) and denatured at 95°C for 5 min. This mixture was separated by SDS-PAGE (4% stacking, 7.5% resolving gel) for 2–3 h at 40 mA on a BioRad MiniPROTEAN II Electrophoresis Cell. To detect proteins, proteins were transferred onto a trans-Blot nitrocellulose membrane (0.45 µm; BioRad) overnight at 4°C at 15 mA in standard Tris-Glycine buffer containing 20% ethanol. Membranes were probed using polyclonal anti-APE1 or polyclonal anti-©-tubulin at 1/1,000 dilution in TTBS (0.1% Tween 20 in TBS (pH 7.5)) with secondary, anti-rabbit HRP-conjugated antibody used at 1/30,000 dilution to detect APE1 and ©-tubulin protein control. Chemi-luminescence was developed using an ECL kit according to the manufacturer's instructions and detected by exposing the blot to HyperfilmECL for 30 s–3 min. (GE Healthcare Biosciences, Piscataway, NJ).
Western blotting was carried out by 7.5% SDS-PAGE of cell extracts (20 µg total protein per lane) either from APE1 overexpresser clone 5 pretreated with 2.5–200 µM concentration of lucanthone/CRT0044876 or recombinant APE1 for 2 h at 37°C in presence of protease inhibitor cocktail (2 tablets (Roche, # 11836153001) containing mixture of several protease inhibitors with broad inhibitory specificity for serine, cysteine and metalloproteases in all systems, dissolved in 20 ml of APE1 buffer). […]

In experiment [2] the target is T1, APE1. The experiment in a line: APE1 endonuclease activity: incision of depurinated plasmid (pUC18) DNA. Set-up: the full length APE1 protein was successfully expressed and purified; made in house; host or cells: E. coli BL21/DE3. The experiment is classed as biochemical. On the procedure:
APE1 endonuclease activity was determined using an assay that measures the conversion of plasmid DNA from supercoiled to relaxed form by incision at an abasic site [35]–[36]. Briefly, the substrate used was 200 ng of depurinated pUC18 DNA in 10 µl of 1× APE1 buffer containing 50 mM Hepes, pH 7.4, 150 mM KCl, 5 mM MgCl2 and 100 µg/ml of BSA in presence of different concentrations of the cell extract (1 µl containing 0–55 ng of total protein). Similar reactions mixtures were set up with untreated pUC18, which served as the internal control. This reaction mixture was incubated at 37°C for 15 min, and the reaction was stopped by addition of alkaline stop mix (0.25% bromocresol green in 0.25N NaOH, 50% glycerol) and left at room temperature for 10–15 min. Then the products were resolved on a 0.8% agarose gel in 40 mM Tris-acetate and 2 mM EDTA for 2 h. The gel was stained with ethidium bromide to visualize supercoiled and relaxed plasmid DNA and imaged with a digital imaging system and the area under the supercoiled and relaxed form was determined. Final calculations were done in femtomoles (fmol) of abasic sites incised/min/mg protein with normalization done using Pyruvate Kinase units (PKU) present in these extracts. Poisson distribution calculations were done on supercoiled and relaxed bands to estimate incisions per plasmid molecule and the resulting depurinated pUC18 had 1 AP site per molecule. The endonuclease activity inhibition by lucanthone was analyzed using standard Lineweaver-Burke Plot to determine if the inhibition was competitive or non-competitive.

For experiment [3], the target named is T1, APE1. The experiment in a line: Direct binding by surface plasmon resonance (BIACORE 2000), APE1 immobilized on CM5 chip. On the set-up: the full length APE1 protein was successfully expressed and purified; made in house; host or cells: E. coli BL21/DE3. To be noted: for kd: full length APE1; for kon: pH 7.4, read-out: ka. As for the experimental part: APE1 (and its hydrophobic mutants) and lucanthone/hycanthone reaction stoichiometry was studied using surface plasmon resonance on a BIACORE 2000 apparatus (Biacore, GE Healthcare, Sweden) at the protein core facility in SUNYSB, to determine the affinity of the two drugs for APE1 (or NΔ40 APE1). APE1 and its mutants (10 µg) (RUmax values were 9000 RU units after immobilization) were immobilized on a CM5 chip by amine coupling (as per the manufacturer's instructions) and binding experiments were performed at 20°C in 10 mM HBS-EP buffer, pH 7.4. Lucanthone (or hycanthone) (20–700 µM) was injected as analyte over the sensor chip in HBS-EP buffer at 10 µl/min. The regeneration was achieved by 10 mM glycine-HCl, pH 3.0 between each analyte (drug) concentration.

Experiment [4] concerns the target T1, APE1. Put plainly: MALDI-TOF analysis of APE1 degradation. On the set-up: the full length APE1 protein was successfully expressed and purified; made in house; host or cells: E. coli BL21/DE3. The following applies: 100 µM drug; for APE1 protein fragments by MALDI-TOF / Full length 35.5 kDa APE1 peak by MALDI-TOF: 37°C; for APE1 protein fragments by MALDI-TOF: 2 or 24 h; for Full length 35.5 kDa APE1 peak by MALDI-TOF: 24 h. As for the experimental part: 100 nM of APE1 protein was treated with 100 µM of lucanthone, hycanthone or CRT at 37°C for 2 h and 24 h and analyzed on sinipinic acid matrix on a Voyager-DE STR (Applied Biosystems) MALDI-TOF instrument at the Proteomics facility at SUNYSB in a linear mode.

Read-outs that look alike come from different tables or passages of the source.

T1 sequence (P27695 whole entry, the tested form may be a part): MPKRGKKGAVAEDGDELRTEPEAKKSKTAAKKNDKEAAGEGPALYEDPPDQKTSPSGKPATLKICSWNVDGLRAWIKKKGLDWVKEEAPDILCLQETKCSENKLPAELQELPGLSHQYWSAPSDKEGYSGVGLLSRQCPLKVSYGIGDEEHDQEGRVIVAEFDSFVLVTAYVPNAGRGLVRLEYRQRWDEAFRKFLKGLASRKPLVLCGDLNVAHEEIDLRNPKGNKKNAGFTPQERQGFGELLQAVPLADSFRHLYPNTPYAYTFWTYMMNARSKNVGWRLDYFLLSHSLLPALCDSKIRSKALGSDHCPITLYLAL

Consider `CCN(CC)CCNc1ccc(C)c2sc3ccccc3c(=O)c12` [lucanthone, 1-[2-diethylaminoethylamino]-4-methylthioxanthen-9-one], for which, at APE1 [1], the “Cleavage of APE1 (25 kDa fragment)” value is “induce cleavage of APE1”. The “De novo APE1 synthesis” value at APE1 [1] (10 µg/ml cycloheximide 4 h pretreatment) is given as “not affected significantly”. Also, at APE1 [2], the concentration for half-maximal inhibition (IC50) worked out at 5 µM and the “Kinetics (mode) of inhibition, Lineweaver-Burke plot” value was “non-competitive inhibitor”. Further, the “Inhibition of endonuclease activity of wild type APE1” value at APE1 [2] (100 µM lucanthone, 2 h, 37°C) is “corresponding inhibition of the endonuclease activity”. The “AP endonuclease activity of recombinant APE1” value at APE1 [2] (10-50 µM, 37°C, 2 h) is reported as “corresponding decrease in AP endonuclease activity”. Moreover, at APE1 [3], the “APE1:drug stoichiometry” value is given as “may have been lower”, the Kd was 0.089 µM, the RUmax was 91 RU and the kd was 7.76e-05 s⁻¹. The kon on APE1 [3] came to 878 M⁻¹ s⁻¹. The RUligand on APE1 [3] (Conc 20 µM) is −82 RU. The RUligand at APE1 [3] (Conc 40 µM) is on record as −26 RU. The compound also returned an RUligand at APE1 [3] (Conc 80 µM) of 2.5 RU. In addition, on APE1 [3] (Conc 160 µM), the RUligand is listed as 77 RU. Further, at APE1 [3] (Conc 320 µM), the RUligand turned out to be 94 RU. The compound further returned an RUligand on APE1 [3] (Conc 640 µM) of 62 RU. On APE1 [4], the “Time at which APE1 degradation is seen by MALDI” value is recorded as ≤ 2 h, the “APE1 protein fragments by MALDI-TOF” value is recorded as “steady degradation of APE1 into smaller fragments” and the “Full length 35.5 kDa APE1 peak by MALDI-TOF” value is reported as “almost completely degraded”.
Take `CCN(CC)CCNc1ccc(CO)c2sc3ccccc3c(=O)c12` [hycanthone]: the “Cleavage of APE1 (25 kDa fragment)” value at APE1 [1] is recorded as “induce cleavage of APE1”. For the same compound, on APE1 [2] (read-out: IC50 for inhibition of APE1 incision of depurinated plasmid DNA), the IC50 amounted to 0.08 µM. In addition, at APE1 [3], the “APE1:drug stoichiometry” value is listed as ~1. At APE1 [3], this compound displayed an RUmax of 90 RU. For the same compound, the Kd on APE1 [3] (BIACORE, 20°C, HBS-EP pH 7.4, read-out: KD (affinity constant)) is 0.01 µM. The RUligand came to 24 RU at APE1 [3] (Conc 22 µM); 45 RU on APE1 [3] (Conc 44 µM); 78 RU at APE1 [3] (Conc 88 µM); 79 RU on APE1 [3] (Conc 176 µM); 90 RU at APE1 [3] (Conc 352 µM); 118 RU on APE1 [3] (Conc 704 µM). For the same compound, the kd at APE1 [3] is 8.9e-07 s⁻¹. In addition, the “Ka, fold higher than lucanthone” value at APE1 [3] (hycanthone vs lucanthone) is “about 8 fold”. At APE1 [3] (hycanthone vs lucanthone), the “kd of full length APE1, fold lower than for lucanthone” value is given as ~100 fold. Also, at APE1 [3], the kon was 90 M⁻¹ s⁻¹. Further, the “APE1 protein fragments by MALDI-TOF” value on APE1 [4] is “cleavage of APE1 as evidenced mainly by 10, 11 and 17 kDa peaks”. For the same compound, the “Full length 35.5 kDa APE1 peak by MALDI-TOF” value on APE1 [4] is “almost completely degraded”.
